Assay results taken from paper PMC11493442, “Sensory-Motor Neuropathy in Mfn2 T105M Knock-in Mice and Its Reversal by a Novel Piperine-Derived Mitofusin Activator” (The Journal of Pharmacology and Experimental Therapeutics, 2024).
Read-outs that look alike come from different tables or passages of the source.

Columns and labels:
Plasma PK in rats = assay type: in vivo, rat; details: oral administration
Description: Routine in vitro pharmacokinetic (PK) profiling of 8015 and its enantiomers (8015-P1 and 8015-P2) was performed at WuXi Apptec Co., Ltd. (Shanghai, China) using standard methods as described ([Dang et al., 2020], [2021]). In vivo PK profiling was performed by Frontage Laboratories (Exton PA, USA). The vehicle used for intravenous and oral PK studies was 12% sulfobutylether-β-cyclodextrin (SBE-β-CD; CyDex Pharmaceutical Inc., Lenexa KS, USA) in sterile water.

Mfn2 T105M knock-in mice = test: CMT2A phenotype reversal in Mfn2 T105M knock-in mice; assay type: in vivo, mouse
Description: The creation of mice with human CMT2A mutations MFN2 T105M and M376V CRISPR-engineered into the mouse Mfn2 gene has been reported, as was absence of a cardiac phenotype ([Franco et al., 2023]). Neuromuscular phenotyping was performed for the current studies (vide infra). Results of male and female mice were combined as there were no observed sex differences.
Mfn2 T105M knock-in mice underwent evaluation at 10-week intervals to establish basal phenotype progression. 8015 or 8015-P2 treatment studies were performed after final baseline evaluations at 50 weeks of age. 8015 (transgenic MFN2 T105M model) or 8015-P2 (Mfn2 T105M knock-in model) were administered at doses of 50 mg/kg by oral gave once daily in the morning. Repeat phenotyping was performed after 4 and 8 weeks of treatment (transgenic model) or 6 weeks of treatment (knock-in model), after which the mice were killed by anesthesia overdose and tissue specimens obtained for histologic and ultrastructural studies, as described ([Franco et al., 2020]).
Rotarod studies were performed on mice initially familiarized and trained on the Rotarod (Ugo Basile, Gemonio, VA, Italy;# 47650) at a speed of 5 rpm. For evaluation, the initial speed of 5 rpm accelerated to 40 rpm over 120 seconds and then maintained 40 rpm for a maximum of 180 seconds. For each trial, five tests were performed with at least 5 minutes rest between each test. No trends were observed from test 1 to test 5. In total, three trials were performed over sequential days to account for variabilities of the Rotarod test and between days. For each mouse, the latency (time to falling off) of replicate tests for each trial day were averaged, and results of the three independent trials were averaged to obtain a result for that condition (i.e., age, genotype, and/or drug treatment).
Neuroelectrophysiologic recordings of hindlimb compound muscle action potentials (CMAP) were performed with a Viasys Healthcare Nicolet Biomedical instrument (Middleton, WI, USA Cat:# OL060954) using Viking Quest version 11.2 software. Nerve stimulation used 3.9 mV pulses of 0.002 milliseconds duration administered through a needle electrode placed at the proximal sciatic nerve through a posterior lumbar approach. Muscle depolarization was monitored using a loop electrode placed around the mid distal hindlimb, corresponding to the greatest girth of the tibialis and gastrocnemius muscles.
An inverted grid suspension test was used to assess grip strength and coordination. Mice were placed on a grid, which was slowly inverted no higher than three feet above a padded surface; the time to falling off (latency) was recorded up to a maximum of 500 seconds. Each mouse underwent at least three independent studies on different days, and the longest latency time was used ([Aartsma-Rus and van Putten, 2014]). Obese mice (>150% of mean weight for that condition) were preemptively excluded.
Mechanical sensitivity was measured using the von Frey test ([Martinov et al., 2013]). Mice were placed in a plexiglass chamber with a mesh grid floor and allowed to accommodate for at least 20 minutes or until exploratory behavior had ceased. The response to mechanical stimulation of hind paws used IITC Supertips filaments and an electronic von Frey anesthesiometer (IITC Life Science, Inc. Woodland Hills CA, USA). Filaments were applied to the footpads with a gradual increase in pressure until paw withdrawal was evoked; the maximum applied force was recorded. Paws of the left and right foot were alternately measured, with at least six measurements taken per animal and the results averaged for each mouse.
Confocal imaging of gastrocnemius myocyte cross-sectional area (wheat germ agglutinin staining) and synapse density (α-bungarotoxin staining) was performed as described ([Franco et al., 2020]). […]

Mfn2 null MEF cells = test: Mitochondrial elongation (fusogenicity, mitochondrial aspect ratio) in Mfn2 null MEFs; assay type: cell-based, mouse
Description: Mitochondrial polarization based on tetramethyl rhodamine ester fluorescence and fusogenicity based on an increase in mitochondrial aspect ratio were measured in static confocal images of live cells using methods that we have extensively validated ([Franco et al., 2016], [2020]; [Rocha et al., 2018]; [Zhang et al., 2022]). As necessary, red, green, and blue brightness, or rarely contrast, were adjusted in individual confocal images prior to merging to enhance clarity. All adjustments were performed across the entire image.
Mitochondrial elongation was assessed in Mfn2 null MEF cells after treatment with compounds at concentrations ranging from 0.5 nM–10 μM in DMSO for 14 h. Mitochondria were stained with MitoTracker Orange, and nuclei were costained with Hoechst before confocal microscope imaging; at least three independent experiments were performed. Mitochondrial aspect ratio (length/width) of at least 10 cells was measured for each experiment using National Institutes of Health ImageJ. […] Concentration-response curves were generated using a sigmoidal model in Prism 8 software. EC50 and Emax values and their variances were calculated from interpolated data of all replicate experiments in a series.

[1] = Enterohepatic recirculation study: oral PK without and with activated charcoal; assay type: in vivo, mouse; details: mice; for AUC(0-t) / half-life: mouse, plasma, po, 5 mg/kg; for half-life: read-out: Plasma t1/2 (converted)
Description: Enterohepatic recirculation (EHR) of 8015-P2 was tested by fasting mice overnight prior to administration of the compound (5 mg/kg) by oral gavage. 1 hour later, activated charcoal (2 g/kg) was administered by oral gavage to half of the mice; all mice were fed 2 hours after 8015-P2 dosing to induce gall bladder emptying. […] Areas under the concentration curves were calculated from the raw data; plasma half-times were estimated by linear regression of the second, slower elimination phase.

[2] = tested on: Mfn2 T105M KI mouse sciatic nerve axons; test: Ex vivo mitochondrial motility in sciatic nerve axons after oral dosing; details: 100 mg/kg by oral gavage
Description: (§1) Mitochondrial motility in neuronal processes of cultured reprogrammed human motor neurons ([Abernathy et al., 2017]; [Dang et al., 2023]), mouse DRG neurons transduced with adeno-Mito-DS-Red2, or axons of ex vivo mouse sciatic nerves stained with tetramethyl rhodamine ester was measured using time-lapse confocal microscopy on a Nikon Eclipse Ti2 confocal microscope as described ([Franco et al., 2016], [2020]; [Rocha et al., 2018]). Mouse DRG neurons and reprogrammed human CMT2A motor neurons were transduced with adeno-Mito-DS-Red2 to visualize mitochondria; ex vivo sciatic nerve mitochondria were labeled with tetramethyl rhodamine ester (200 nM for 30 minutes at 37° C). Time-lapse imaging was carried out using confocal microscopy on a Nikon Eclipse Ti2 confocal microscope with 1 frame captured every 5 seconds for 180 frames (15 minutes). Kymographs and quantitative data were generated using the ImageJ plug-in: Velocity_Measurement_Tool.

[3] = tested on: Mfn2 T105M KI DRG neurons; test: Mitochondrial motility in DRG neurons from Mfn2 T105M KI mice; assay type: cell-based, mouse; details: 100 nM for 48 hours
Description: DRG neurons were isolated from ∼8-week-old Mfn2 T105M motor neuron transgenic mice, Mfn2 T105M KI mice, or Mfn1 fl/fl/Mfn2 fl/fl mice and cultured as described ([Dang et al., 2023]).
as §1

[4] = ref Dang et al., cited from earlier work
[5] = p.o. 50 mg/kg, ref Dang et al., cited from earlier work
[6] = ref Dang et al., 2021 (cpd 5b); cited from earlier work
[7] = design: method as in earlier work; details: ref Piyachaturawat et al., 1983, Bhardwaj et al., 2002, Lee et al., 2005, McNamara et al.; cited from earlier work
mitofusins = tested on: mitofusins; design: method as in Zhang et al., 2022; details: ref Zhang et al., 2022; cited from earlier work
[8] = 50 mg/kg once daily by oral gavage for 6 weeks
[9] = 5 mg/kg oral, with vs. without charcoal
[10] = 5 mg/kg oral, activated charcoal by gavage 1 hour after dosing

O=C(NC1CC1CCCCc1ccccc1)C1CCC(O)CC1 (stereo not shown) [Compound 8015-P2]
Waxing and waning of plasma levels (Plasma PK in rats): not observed | Motor neuron functional metrics (Rotarod latency, inverted grasp) (Mfn2 T105M knock-in mice; [8]): normalized | Neuroelectrophysiological abnormality (CMAP amplitude) (Mfn2 T105M knock-in mice; [8]): normalized | Sensory neuron metric (von Frey foot pad mechanical sensitivity) (Mfn2 T105M knock-in mice; [8]): normalized | Gastrocnemius myocyte cross-sectional area (Mfn2 T105M knock-in mice; 6 weeks of administration): reversed | Neuromuscular synapse density (Mfn2 T105M knock-in mice; 6 weeks of administration): reversed | Proportion of tibialis nerve neurons with small axonal areas (lowest quartile) (Mfn2 T105M knock-in mice; 6 weeks of administration): reversed | Mitofusin activator potency (in words) (Mfn2 null MEF cells): subnanomolar potency | Comparative fusogenic potency of the two 8015 isomers (Mfn2 null MEF cells; Mfn2-deficient mitochondria, n = 4 each): markedly more potent and effective than 8015-P1 | EC50 (Mfn2 null MEF cells; Mus musculus, MEF, 95% confidence limits 439 - 863PM, n = 4, read-out: EC50 as a fusogenic factor (fusion of Mfn2-deficient mitochondria)): 0.623 nM | Fold greater fusogenic potency versus comparators (Mfn2 null MEF cells; versus trans-MiM111 or CPR1-B / previously described mitofusin activators): ~10 fold | Decrease of AUClast by charcoal [1, 9]: 17% | Decrease of t1/2 by charcoal [1, 9]: 36% | Enterohepatic recirculation ([1]; oral): undergoes enterohepatic recirculation | AUC(0-t) [1, 10]: 739 ng·h/mL | half-life [1, 10]: 1.21 h | AUC(0-t) ([1]; 5 mg/kg oral, without charcoal): 887 ng·h/mL | half-life ([1]; 5 mg/kg oral, without charcoal): 1.88 h | Mitochondrial motility in sciatic nerve axons, ex vivo [2]: corrected mitochondrial dysmotility | Mitochondrial motility in DRG neuronal processes [3]: corrected

O=C(CCCCCc1ccccc1)N[C@H]1CC[C@H](O)CC1 [trans-MiM111, N-(trans-4-hydroxycyclohexyl)-6-phenylhexanamide]
calc logP ([4]; 2020 (cpd 13b)): 3.22 | Bioavailability ([5]; 2020 (cpd 13b)): 61%

O=C(N[C@H]1CC[C@H](O)CC1)C1CC1CCCc1ccccc1 (stereo partly drawn) [CPR1-B, N-(trans-4-hydroxycyclohexyl)-2-(3-phenylpropyl)cyclopropane-1-carboxamide]
Aqueous solubility (pH 7.4) [6]: <10 uM | calc logP ([4]; 2021 (cpd 5b)): 3.09 | Bioavailability ([5]; 2021 (cpd 5b)): 59%

O=C(/C=C/C=C/c1ccc2c(c1)OCO2)N1CCCCC1 [piperine]
Cytotoxicity [7]: can be cytotoxic at higher concentrations | Mitofusin activation potency (in words) (mitofusins): approximately the same potency as phenylhexanamide compounds

O=C(NC1CC1CCCc1ccccc1)[C@H]1CC[C@H](O)CC1 (stereo partly shown) [Cpd 10]
Mitofusin activator activity (mitofusins): functionally inactive
